Laboratory results from patent US9801831B2, “Device for controlled release of a bioactive agent” (Nanyang Technological University, priority 2010, dated 2017).
≈ marks a conversion by molar mass, not a printed value.

Assay: Solubility limit of paclitaxel in release buffer
Assay type: physicochemical
Details: PBS/2% Tween-80 release buffer, pH 7.4, aqueous with cosolvent or surfactant or cyclodextrin
Procedure: The in-vitro release of paclitaxel was conducted in 2 mL of PBS/% Tween 80 release buffer (pH 7.4) at 37° C. using 6 mm punch-outs (1 punch-out/well) in triplicate. At predetermined time-points 2 mL of buffer was removed and another 2 mL replaced with PBS/Tween 80 release buffer, maintaining sink conditions throughout the release. Withdrawn aliquots (or standards/dissolutions samples) were filtered through a 0.2 μm PTFE syringe filter directly into HPLC vials and immediately capped. Paclitaxel was quantified with an Agilent Series 1100 HPLC (Santa Clara, Calif., USA) equipped with UV/Vis detector, autosampler, and column heater set to 35° C. A ZORBAX Eclipse XDB-C18 (5 μm) column of acetonitrile/water 60/40 (v/v) served as the mobile buffer, eluting the paclitaxel peak at ˜5.4 minutes with a flow rate 1.0 mL/min and the UV/Vis detector recording at 227 nm. A total dissolution study of the 6 mm discs in triplicate was conducted by dissolving the films in acetone and diluting in release buffer to determine the surface concentration of paclitaxel (μg/mm^2).

solubility: 20 µg/mL (≈ 23.4 µM)
SMILES: CC(=O)O[C@H]1C(=O)[C@@]2(C)[C@H]([C@H](OC(=O)c3ccccc3)[C@]3(O)C[C@H](OC(=O)[C@H](O)[C@@H](NC(=O)c4ccccc4)c4ccccc4)C(C)=C1C3(C)C)[C@]1(OC(C)=O)CO[C@@H]1C[C@@H]2O [paclitaxel]
